Test results published in patent US6613718B2, “Aryl ether derivatives and processes for their preparation and herbicidal and desiccant compositions containing them” (Ishihara Sangyo Kaisha, Ltd., priority 2001, dated 2003).

Tests used:
Assay type in all cases: in vivo
Details in all cases: 14 days after application
[1] = system: upland rice (Oryza sp., var.Tebonnet, RICE); assay: Pre-emerge greenhouse screening, crop safety (phytotoxicity rating)
Excerpt: (§1) A standard greenhouse herbicide activity screening system was used to evaluate the herbicidal efficacy and crop safety of these test compounds. Seven broadleaf weed species including redroot pigweed (Amaranthus retroflexus, AMARE), velvetleaf (Abutilon theophrasti, ABUTH), sicklepod (Cassia obtusifolia, CASOB), ivyleaf morningglory (Ipomoea hederacea, IPOHE), lambsquarters (Chenopodium album, CHEAL), common ragweed (Ambrosia artemisiifolia L., AMBEL), and cocklebur (Xanthium strumarium, XANST) were used as test species. Four grass weed species including green foxtail (Setaria viridis, SETVI), barnyardgrass (Echinochloa crus-galli, ECHCG), johnsongrass (Sorghum halepense, SORHA), and large crabgrass (Digitaria sanguinalis, DIGSA) were also used. In addition, three crop species, field corn (Zea mays L., var. Dekalb 535, CORN), soybean (Glycine max L., var. Pella 86, SOY), and upland rice (Oryza sp., var.Tebonnet, RICE) were included.
(§2) All plants were grown in 10 cm square plastic pots which were filled with a sandy loam soil mix. For pre-emerge tests, seeds were planted one day prior to application of the test compounds. For post-emerge tests, seeds were planted 8-21 days prior to the test to allow emergence and good foliage development prior to application of the test substances. At the time of the post-emerge application, plants of all species were usually at the 2-3 leaf stage of development.
(§3) All test compounds were dissolved in acetone and applied to the test units in a volume of 187 1/ha. Test materials were applied at rates ranging from 15 g ai/ha to 1000 g ai/ha using a track sprayer equipped with a TJ8001E even flow flat fan spray nozzle. Plants were arranged on a shelf so that the top of the canopy (post-emerge) or top of the soil surface (pre-emerge) was 40-45 cm below the nozzle. Pressurized air was used to force the test solution through the nozzle as it was mechanically advanced (via electrically driven chain drive) over the top of all test plants/pots. This application simulates a typical commercial field herbicide application.
(§4) In the post-emerge test, a commercial non-ionic surfactant was also included (0.25% v/v) to enhance wetting of the leaf surfaces of target plants. Immediately after application, test units of the pre-emerge applications were watered at the soil surface to incorporate the test materials. Subsequently, these test units were bottom-watered. Post-emerge test units were always bottom-watered.
(§5) At 14 days after application of the test materials, phytotoxicity ratings were recorded. A rating scale of 0-100 was used as previously described in Research Methods in Weed Science, 2nd edition, B. Truelove, Ed., Southern Weed Science Society, Auburn University, Auburn, Ala., 1977. Briefly, “0” corresponds to no damage and “100” corresponds to complete death of all plants in the test unit. This scale was used both to determine efficacy against weed species and damage to crop species. Herbicide activity data for various compounds of this invention, which are shown by compound No. in Tables I-VI, are shown in Tables VIII-IX.

[2] = system: soybean (Glycine max L., var. Pella 86, SOY); assay: as above
Excerpt: as §1, §2, §3, §4, §5

[3] = system: field corn (Zea mays L., var. Dekalb 535, CORN); assay: as above
Excerpt: as §1, §2, §3, §4, §5

[4] = system: field corn (Zea mays L., var. Dekalb 535, CORN); assay: Post-emerge greenhouse screening, crop safety / corn selectivity (phytotoxicity rating)
Excerpt: as §1, §2, §3, §4, §5

[5] = system: redroot pigweed (Amaranthus retroflexus, AMARE); assay: Pre-emerge greenhouse herbicide activity screening, phytotoxicity rating
Excerpt: as §1, §2, §3, §4, §5

[6] = system: common ragweed (Ambrosia artemisiifolia L., AMBEL); assay: as above
Excerpt: as §1, §2, §3, §4, §5

[7] = system: ivyleaf morningglory (Ipomoea hederacea, IPOHE); assay: as above
Excerpt: as §1, §2, §3, §4, §5

[8] = system: johnsongrass (Sorghum halepense, SORHA); assay: as above
Excerpt: as §1, §2, §3, §4, §5

[9] = system: velvetleaf (Abutilon theophrasti, ABUTH); assay: as above
Excerpt: as §1, §2, §3, §4, §5

[10] = system: large crabgrass (Digitaria sanguinalis, DIGSA); assay: as above
Excerpt: as §1, §2, §3, §4, §5

[11] = system: lambsquarters (Chenopodium album, CHEAL); assay: as above
Excerpt: as §1, §2, §3, §4, §5

[12] = system: sicklepod (Cassia obtusifolia, CASOB); assay: as above
Excerpt: as §1, §2, §3, §4, §5

[13] = system: barnyardgrass (Echinochloa crus-galli, ECHCG); assay: as above
Excerpt: as §1, §2, §3, §4, §5

[14] = system: green foxtail (Setaria viridis, SETVI); assay: as above
Excerpt: as §1, §2, §3, §4, §5

[15] = system: upland rice (Oryza sp., var.Tebonnet, RICE); assay: Post-emerge greenhouse screening, crop safety (phytotoxicity rating)
Excerpt: as §1, §2, §3, §4, §5

[16] = system: soybean (Glycine max L., var. Pella 86, SOY); assay: as above
Excerpt: as §1, §2, §3, §4, §5

[17] = system: redroot pigweed (Amaranthus retroflexus, AMARE); assay: Post-emerge greenhouse herbicide activity screening, phytotoxicity rating
Excerpt: as §1, §2, §3, §4, §5

[18] = system: common ragweed (Ambrosia artemisiifolia L., AMBEL); assay: as above
Excerpt: as §1, §2, §3, §4, §5

[19] = system: ivyleaf morningglory (Ipomoea hederacea, IPOHE); assay: as above
Excerpt: as §1, §2, §3, §4, §5

[20] = system: johnsongrass (Sorghum halepense, SORHA); assay: as above
Excerpt: as §1, §2, §3, §4, §5

[21] = system: velvetleaf (Abutilon theophrasti, ABUTH); assay: as above
Excerpt: as §1, §2, §3, §4, §5

[22] = system: large crabgrass (Digitaria sanguinalis, DIGSA); assay: as above
Excerpt: as §1, §2, §3, §4, §5

[23] = system: lambsquarters (Chenopodium album, CHEAL); assay: as above
Excerpt: as §1, §2, §3, §4, §5

[24] = system: sicklepod (Cassia obtusifolia, CASOB); assay: as above
Excerpt: as §1, §2, §3, §4, §5

[25] = system: barnyardgrass (Echinochloa crus-galli, ECHCG); assay: as above
Excerpt: as §1, §2, §3, §4, §5

[26] = system: green foxtail (Setaria viridis, SETVI); assay: as above
Excerpt: as §1, §2, §3, §4, §5

Cn1c(C(F)(F)F)cc(=O)n(-c2cc(Oc3ccccc3C#N)c(Cl)cc2F)c1=S [Compound 1-66]
99: ABUTH phytotoxicity rating (0-100 scale) ([9]; 250 g ai/ha) | DIGSA phytotoxicity rating (0-100 scale) ([10]; 250 g ai/ha) | SETVI phytotoxicity rating (0-100 scale) ([14]; 125 g ai/ha)
40: RICE crop damage, phytotoxicity rating (0-100 scale) ([1]; 125 g ai/ha)
0: SOY crop damage, phytotoxicity rating (0-100 scale) ([2]; 125 g ai/ha) | SOY crop damage, phytotoxicity rating (0-100 scale) ([2]; 250 g ai/ha) | CORN crop damage, phytotoxicity rating (0-100 scale) ([3]; 125 g ai/ha) | CORN crop damage, phytotoxicity rating (0-100 scale) ([3]; 250 g ai/ha) | CORN crop damage, phytotoxicity rating (0-100 scale) ([4]; 125 g ai/ha) | CORN crop damage, phytotoxicity rating (0-100 scale) ([4]; 250 g ai/ha) | RICE crop damage, phytotoxicity rating (0-100 scale) ([15]; 125 g ai/ha) | RICE crop damage, phytotoxicity rating (0-100 scale) ([15]; 250 g ai/ha) | SORHA phytotoxicity rating (0-100 scale) ([20]; 125 g ai/ha) | SORHA phytotoxicity rating (0-100 scale) ([20]; 250 g ai/ha) | DIGSA phytotoxicity rating (0-100 scale) ([22]; 125 g ai/ha) | DIGSA phytotoxicity rating (0-100 scale) ([22]; 250 g ai/ha) | ECHCG phytotoxicity rating (0-100 scale) ([25]; 125 g ai/ha) | ECHCG phytotoxicity rating (0-100 scale) ([25]; 250 g ai/ha) | SETVI phytotoxicity rating (0-100 scale) ([26]; 125 g ai/ha) | SETVI phytotoxicity rating (0-100 scale) ([26]; 250 g ai/ha)
85: ABUTH phytotoxicity rating (0-100 scale) ([9]; 125 g ai/ha) | IPOHE phytotoxicity rating (0-100 scale) ([19]; 250 g ai/ha)
55: ECHCG phytotoxicity rating (0-100 scale) ([13]; 125 g ai/ha)
98: CHEAL phytotoxicity rating (0-100 scale) ([23]; 125 g ai/ha)
90: IPOHE phytotoxicity rating (0-100 scale) ([7]; 125 g ai/ha) | DIGSA phytotoxicity rating (0-100 scale) ([10]; 125 g ai/ha) | ABUTH phytotoxicity rating (0-100 scale) ([21]; 125 g ai/ha) | ABUTH phytotoxicity rating (0-100 scale) ([21]; 250 g ai/ha)
35: CASOB phytotoxicity rating (0-100 scale) ([12]; 125 g ai/ha)
10: SOY crop damage, phytotoxicity rating (0-100 scale) ([16]; 125 g ai/ha) | SOY crop damage, phytotoxicity rating (0-100 scale) ([16]; 250 g ai/ha)
65: AMBEL phytotoxicity rating (0-100 scale) ([6]; 250 g ai/ha) | CASOB phytotoxicity rating (0-100 scale) ([12]; 250 g ai/ha)
100: AMARE phytotoxicity rating (0-100 scale) ([5]; 125 g ai/ha) | AMARE phytotoxicity rating (0-100 scale) ([5]; 250 g ai/ha) | IPOHE phytotoxicity rating (0-100 scale) ([7]; 250 g ai/ha) | CHEAL phytotoxicity rating (0-100 scale) ([11]; 125 g ai/ha) | CHEAL phytotoxicity rating (0-100 scale) ([11]; 250 g ai/ha) | SETVI phytotoxicity rating (0-100 scale) ([14]; 250 g ai/ha) | CHEAL phytotoxicity rating (0-100 scale) ([23]; 250 g ai/ha)
75: SORHA phytotoxicity rating (0-100 scale) ([8]; 250 g ai/ha) | AMBEL phytotoxicity rating (0-100 scale) ([18]; 125 g ai/ha) | AMBEL phytotoxicity rating (0-100 scale) ([18]; 250 g ai/ha) | CASOB phytotoxicity rating (0-100 scale) ([24]; 125 g ai/ha) | CASOB phytotoxicity rating (0-100 scale) ([24]; 250 g ai/ha)
70: AMARE phytotoxicity rating (0-100 scale) ([17]; 125 g ai/ha) | AMARE phytotoxicity rating (0-100 scale) ([17]; 250 g ai/ha) | IPOHE phytotoxicity rating (0-100 scale) ([19]; 125 g ai/ha)
45: RICE crop damage, phytotoxicity rating (0-100 scale) ([1]; 250 g ai/ha)
60: AMBEL phytotoxicity rating (0-100 scale) ([6]; 125 g ai/ha) | SORHA phytotoxicity rating (0-100 scale) ([8]; 125 g ai/ha) | ECHCG phytotoxicity rating (0-100 scale) ([13]; 250 g ai/ha)
